Source: patent publication US11999747B2, “Furoquinolinediones as inhibitors of TDP2” (THE UNITED STATES OF AMERICA, AS REPRESENTED BY THE …, priority 2015, dated 2024)
pIC50: −log10 of the molar value.

Assays:
[1] = biological target: T1, recombinant human TDP2 (Homo sapiens, UniProt O95551); experiment: Recombinant Tdp2 assay (gel-based, 18-mer ssDNA substrate); type: biochemical; conditions: recombinant human TDP2, 25 pM, 15 min, room temperature; read-out: REC TDP2
T1 sequence (O95551 1-362): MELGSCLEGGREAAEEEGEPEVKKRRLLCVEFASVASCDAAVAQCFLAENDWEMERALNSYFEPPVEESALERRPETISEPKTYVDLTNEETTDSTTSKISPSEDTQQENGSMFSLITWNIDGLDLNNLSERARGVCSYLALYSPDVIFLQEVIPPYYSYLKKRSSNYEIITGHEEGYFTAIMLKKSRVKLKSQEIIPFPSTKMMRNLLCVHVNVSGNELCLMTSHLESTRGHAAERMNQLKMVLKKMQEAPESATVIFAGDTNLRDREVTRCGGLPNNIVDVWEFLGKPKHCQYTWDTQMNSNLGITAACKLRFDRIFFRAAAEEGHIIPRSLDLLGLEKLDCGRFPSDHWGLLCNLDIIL
Protocol: TDP2 reactions were carried out as described previously (Example 52) with the following modifications. The 18-mer single-stranded oligonucleotide DNA substrate (α^32P-cordycepin-3′-labeled) was incubated at 1 nM with 25 pM recombinant human TDP2 in the absence or presence of inhibitor for 15 min at room temperature in a buffer containing 50 mM Tris-HCl, pH 7.5, 80 mM KCl, 5 mM MgCl2, 0.1 mM EDTA, 1 mM DTT, 40 μg/mL BSA, and 0.01% Tween 20. Reactions were terminated and treated similarly to WCE and recombinant TDP1 reactions (see Examples 52 and 53).
(§1) All compounds were prepared by the methods shown in Examples 1 to 50. Routine changes in starting materials and reaction conditions, readily apparent to those of skill in the art, were used to make the particular compounds disclosed in Table 1. […] A standard Tdp2 inhibition assay, such as the assay of Example 53, is used to determine the IC50's for the compounds. LC methods are given in the General Methods section.

[2] = biological target: T2, human TDP2 (hTDP2) (Homo sapiens, UniProt O95551); experiment: Whole cell extract Tdp2 assay (DT40 TDP1-/- cells complemented with human TDP2); type: biochemical; conditions: whole cell extract 4 μg/mL of DT40 cells expressing hTDP2, 15 min, room temperature; read-out: WCE hTDP2
T2 construct: expressed in transfected cells; host or cells: DT40 (chicken) TDP1-/- knockout cells complemented with human TDP2; whole cell extract
T2 sequence (O95551 1-362): T1 sequence (O95551 1-362)
Protocol: DT40 knockout cells (1×10^7) for Tdp1 (TDP1−/−) complemented with human TDP2 (hTDP2) were collected, washed, and centrifuged. Cell pellets were then lysed and stored similarly to hTDP1 extracts (see above). The 18-mer single-stranded oligonucleotide was incubated at 1 nM with 4 μg/mL of whole cell extracts in the absence or presence of inhibitor for 15 min at room temperature in the WCE buffer containing 50 mM Tris HCl, pH 7.5, 80 mM KCl, 5 mM MgCl2, 2 mM EDTA, 1 mM DTT, 40 μg/mL BSA, and 0.01% Tween-20. Reactions were terminated by the addition of 1 volume of gel loading buffer [99.5% (v/v) formamide, 5 mM EDTA, 0.01% (w/v) xylene cyanol, and 0.01% (w/v) bromophenol blue]. Samples were then treated and run similarly to the hTDP1 whole cell extract (Example 51).
as §1

Work on `CCOC(=O)c1c(C)oc2c1C(=O)c1ncccc1C2=O` [Compound 2, Ethyl 2-methyl-4,9-dioxo-4,9-dihydrofuro[2,3-g]quinoline-3-carboxylate] yielded a pIC50 [1] of 4.92 to 6.00 and a pIC50 [2] of 4.43 to 4.92.
With `CCOC(=O)c1noc2c1C(=O)c1ncccc1C2=O` [Compound 73] the pIC50 [1] was ≥ 6.00.
`CCOC(=O)c1c(-c2ccccc2)oc2c1C(=O)c1cccnc1C2=O` [Compound 29, Ethyl 4,9-dioxo-2-phenyl-4,9-dihydrofuro[3,2-g]quinoline-3-carboxylate] gave a pIC50 [1] of 3.95 to 4.43 and a pIC50 [2] of 4.43 to 4.92.
Work on `C=CC(=O)Nc1cccc(OC(=O)c2c(C)oc3c2C(=O)c2ncccc2C3=O)c1` [Compound 67] yielded a pIC50 [1] of 4.43 to 4.92.
`CC(=O)c1c(C)oc2c1C(=O)c1cccnc1C2=O` [Compound 8, 3-acetyl-2-methylfuro[3,2-g]quinoline-4,9-dione] was tested, and the pIC50 [1] was < 3.95.
`Cc1oc2c(c1C(=O)OCCc1cn(CCC(=O)O)nn1)C(=O)c1ncccc1C2=O` [Compound 42] showed a pIC50 [1] of 4.43 to 4.92 and a pIC50 [2] of 4.43 to 4.92.
For `Cc1oc2c(c1C(=O)Nc1ccccc1)C(=O)c1ncccc1C2=O` [Compound 16], the pIC50 [1] was < 3.95.
With `CCOC(=O)C1=C(C)C(C(=O)OCC)C2=C1C(=O)c1ncccc1C2=O` (stereo not shown) [Compound 4] the pIC50 [1] was < 3.95.
In the case of `C#CCCOC(=O)c1c(C)oc2c1C(=O)c1ncccc1C2=O` [Compound 43], the pIC50 [1] was 4.43 to 4.92 and the pIC50 [2] was 4.43 to 4.92.
In the case of `CCOC(=O)c1c(C(C)C)oc2c1C(=O)c1ncccc1C2=O` [Compound 64], the pIC50 [1] was 4.43 to 4.92 and the pIC50 [2] was ≥ 6.00.
`Cc1oc2c(c1C(=O)Oc1ccccc1)C(=O)c1ncccc1C2=O` [Compound 14] was tested, and the pIC50 [1] was 4.43 to 4.92 and the pIC50 [2] was 4.92 to 6.00.
For `Cc1oc2c(c1C(=O)Oc1ccc(Br)cc1)C(=O)c1ncccc1C2=O` [Compound 31], the pIC50 [1] was 4.43 to 4.92 and the pIC50 [2] was 4.43 to 4.92.
Compound `Cc1oc2c(c1C(=O)Oc1ccc(S(C)(=O)=O)cc1)C(=O)c1ncccc1C2=O` [Compound 44] has a pIC50 [1] of 4.43 to 4.92 and a pIC50 [2] of 4.43 to 4.92.
For `CNC1=C(Cl)C(=O)c2ncccc2C1=O` [Compound 6], the pIC50 [1] was < 3.95.
`Cc1oc2c(c1C(=O)OCC(O)CO)C(=O)c1ncccc1C2=O` (stereo not shown) [Compound 15] showed a pIC50 [1] of 4.43 to 4.92 and a pIC50 [2] of 4.92 to 6.00.
With `CC(C)(C)OC(=O)Nc1ccc(OC(=O)c2coc3c2C(=O)c2ncccc2C3=O)cc1` [Compound 69] the pIC50 [1] was 4.43 to 4.92.
Compound `CCOC(=O)c1c(CN2CCOCC2)oc2c1C(=O)c1ncccc1C2=O` [Compound 72] has a pIC50 [1] of 4.92 to 6.00.
In the case of `Cc1oc2c(c1C(=O)Nc1cccc(Cl)c1)C(=O)c1ncccc1C2=O` [Compound 17], the pIC50 [1] was < 3.95.
For `CCOC(=O)c1c(CC)oc2c1C(=O)c1ncccc1C2=O` [Compound 66], the pIC50 [1] was 4.43 to 4.92.
For `CCNC(=O)c1c(C)oc2c1C(=O)c1ncccc1C2=O` [Compound 20], the pIC50 [1] was < 3.95.
In the case of `Cc1oc2c(c1C(=O)Nc1ccccc1O)C(=O)c1ncccc1C2=O` [Compound 18], the pIC50 [1] was < 3.95.
For `Cc1oc2c(c1C(=O)Oc1ccc(N)cc1)C(=O)c1ncccc1C2=O` [Compound 70], the pIC50 [1] was 4.92 to 6.00.
In the case of `Cc1oc2c(c1C(=O)Nc1cccc(O)c1)C(=O)c1ncccc1C2=O` [Compound 21], the pIC50 [1] was < 3.95.
For `CCOC(=O)c1c(C(Br)Br)oc2c1C(=O)c1ncccc1C2=O` [Compound 74], the pIC50 [1] was 4.43 to 4.92.
`CCOC(=O)c1c(CN2CCN(C(C)=O)CC2)oc2c1C(=O)c1ncccc1C2=O` [Compound 71] was tested, and the pIC50 [1] was 4.43 to 4.92.
Work on `C=CC(=O)Nc1ccc(OC(=O)c2c(C)oc3c2C(=O)c2ncccc2C3=O)cc1` [Compound 68] yielded a pIC50 [1] of 4.43 to 4.92.
For `Cc1oc2c(c1C(=O)Oc1ccc3ccccc3c1)C(=O)c1ncccc1C2=O` [Compound 25], the pIC50 [1] was < 3.95.
In the case of `CCOC(=O)c1c2c(n(C)c1C)C(=O)c1ncccc1C2=O` [Compound 5], the pIC50 [1] was < 3.95.
In the case of `COc1ccc(NC(=O)c2c(C)oc3c2C(=O)c2ncccc2C3=O)cc1` [Compound 19], the pIC50 [1] was < 3.95.
With `CCOC(=O)c1c(CC)oc2c1C(=O)c1ncccc1C2=O` [Compound 65] the pIC50 [1] was 3.95 to 4.43.
Compound `CCOC(=O)c1c(C)oc2c1C(=O)c1ccccc1C2=O` [Compound 3, Ethyl 2-methyl-4,9-dioxo-4,9-dihydronaphtho[2,3-b]furan-3-carboxylate] has a pIC50 [1] of 3.95 to 4.43.
